Results reported in patent US6143759A, “Tetrazoles” (BYK Gulden Lomberg Chemische Fabrik GmbH, priority 1997, dated 2000).
Structures can show the parent of a compound that is named as a salt.

Tests used:
PDE3 = target: T1, PDE3 (Homo sapiens, UniProt Q14432); assay: Inhibition of PDE isoenzymes: PDE3 (cGMP-inhibited), homogenates of human blood platelets; type: biochemical; conditions: cAMP or cGMP as substrate, 0.5 μM, pH 7.4, 37° C., 15 min; for IC50: read-out: PDE3 -log IC50 (converted)
T1 construct: were investigated in homogenates of human blood platelets; from tissue; host or cells: homogenates of human blood platelets
T1 sequence (Q14432 whole entry): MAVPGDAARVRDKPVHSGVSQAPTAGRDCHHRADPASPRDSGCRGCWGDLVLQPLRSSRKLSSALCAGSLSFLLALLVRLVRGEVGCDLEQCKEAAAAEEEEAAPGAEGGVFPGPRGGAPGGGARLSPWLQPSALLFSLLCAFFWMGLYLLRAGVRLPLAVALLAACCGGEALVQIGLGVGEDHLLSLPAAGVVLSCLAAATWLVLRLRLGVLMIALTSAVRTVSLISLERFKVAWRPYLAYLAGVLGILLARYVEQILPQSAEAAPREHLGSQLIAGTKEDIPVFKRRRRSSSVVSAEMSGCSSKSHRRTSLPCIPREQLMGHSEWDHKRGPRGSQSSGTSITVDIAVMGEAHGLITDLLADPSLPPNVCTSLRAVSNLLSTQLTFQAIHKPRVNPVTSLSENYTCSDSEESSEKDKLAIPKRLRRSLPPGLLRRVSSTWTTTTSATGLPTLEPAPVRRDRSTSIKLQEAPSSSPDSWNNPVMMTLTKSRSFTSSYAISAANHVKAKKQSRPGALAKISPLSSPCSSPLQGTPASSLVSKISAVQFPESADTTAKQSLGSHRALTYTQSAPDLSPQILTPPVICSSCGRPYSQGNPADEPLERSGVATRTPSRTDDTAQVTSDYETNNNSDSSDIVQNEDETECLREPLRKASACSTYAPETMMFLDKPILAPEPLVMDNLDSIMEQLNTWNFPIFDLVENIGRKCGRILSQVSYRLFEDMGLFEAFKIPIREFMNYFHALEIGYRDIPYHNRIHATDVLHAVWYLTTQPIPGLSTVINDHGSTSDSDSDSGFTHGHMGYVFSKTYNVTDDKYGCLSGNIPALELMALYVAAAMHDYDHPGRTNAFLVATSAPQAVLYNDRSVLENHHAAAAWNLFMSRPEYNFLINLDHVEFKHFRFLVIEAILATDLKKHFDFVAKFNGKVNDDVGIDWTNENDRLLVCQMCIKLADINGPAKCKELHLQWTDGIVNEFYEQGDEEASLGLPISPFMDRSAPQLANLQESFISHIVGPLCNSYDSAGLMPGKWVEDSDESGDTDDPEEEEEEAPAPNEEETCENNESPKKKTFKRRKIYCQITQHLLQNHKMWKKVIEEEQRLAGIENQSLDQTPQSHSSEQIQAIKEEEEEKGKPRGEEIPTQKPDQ

PDE4 = assay: Inhibition of PDE isoenzymes: PDE4 (cAMP-specific), cytosol of human polymorphonuclear leukocytes, cAMP as substrate; type: biochemical; conditions: cytosol of human PMNL; 0.5 μM cAMP; motapizone (1 μM) present; pH 7.4, 37° C., 15 min

| SMILES | IC50 (PDE3) | PDE4 -log IC50 (PDE4) | PDE3 -log IC50 (PDE3) |
| --- | --- | --- | --- |
| CCOc1cc2c(cc1OC)[C@@H]1CN(C)CC[C@@H]1N=C2c1ccc(-c2nnn(CC)n2)cc1 (single isomer, unassigned) [Compound 10, (-)-cis-8-Ethoxy-9-methoxy-2-methyl-6-[4-(2H-2-ethyltetrazol-5-yl)-phenyl]-1,2,3,4,4a,10b-hexahydrobenzo[c][1.6]naphthyridine hydrochloride] | 275 nM | 6.08 mol/l | – |
| COc1cc2c(cc1OC)[C@@H]1CN(C)CC[C@@H]1N=C2c1ccc(-c2nnn(C)n2)cc1 (single isomer, unassigned) [Compound 4, (-)-cis-8,9-Dimethoxy-2-methyl-6-[4-(2H-2-methyltetrazol-5-yl)phenyl]-1,2,3,4,4a,10b-hexahydrobenzo[c][1,6]naphthyridine] | 355 nM | 5.92 mol/l | – |
| CCOc1cc2c(cc1OCC)[C@@H]1CN(C)CC[C@@H]1N=C2c1ccc(-c2nnn(Cc3ccc(OC)cc3)n2)cc1 (single isomer, unassigned) [Compound 5, (-)-cis-8,9-Diethoxy-2-methyl-6-[[4-[2H-2-(4-methoxybenzyl)tetrazol-5-yl]-phenyl]]-1,2,3,4,4a,10b-hexahydrobenzo[c][1,6]naphthyridine hydrochloride] | 204 nM | 8.03 mol/l | – |
| CCOc1cc2c(cc1OC)C(c1cccc(-c3nnn(CC)n3)c1)=N[C@H]1CCN(C)C[C@@H]21 (single isomer, unassigned) [Compound 12, (-)-cis-9-Ethoxy-8-methoxy-2-methyl-6-[3-(2H-2-ethyltetrazol-5-yl)-phenyl]-1,2,3,4,4a,10b-hexahydrobenzo[c][1.6]naphthyridine hydrochloride] | 708 nM | 7.82 mol/l | – |
| CCOc1cc2c(cc1OCC)[C@@H]1CN(C)CC[C@@H]1N=C2c1ccc(-c2nn[nH]n2)cc1 (single isomer, unassigned) [Compound 17, (-)-cis-8.9-Diethoxy-2-methyl-6-[4-(1H- and 2H-2-tetrazol-5-yl)-phenyl]-1,2,3,4,4a,10b-hexahydrobenzo[c][1.6]naphthyridine] | 195 nM | 7.44 mol/l | – |
| CCOc1cc2c(cc1OCC)[C@@H]1CN(C)CC[C@@H]1N=C2c1ccc(-c2nnn(C)n2)cc1 (single isomer, unassigned) [Compound 6, (-)-cis-8,9-Diethoxy-2-methyl-6-[4-(2H-2-methyltetrazol-5-yl)phenyl]-1,2,3,4,4a,10b-hexahydrobenzo[c][1,6]naphthyridine hydrochloride] | – | 7.26 mol/l | 6.52 mol/l |
| CCOc1cc2c(cc1OCC)[C@@H]1CN(C)CC[C@@H]1N=C2c1ccc(-c2nnn(CC)n2)cc1 (single isomer, unassigned) [Compound 3, (-)-cis-8,9-Diethoxy-2-methyl-6-[4-(2H-2-ethyltetrazol-5-yl)phenyl]-1,2,3,4,4a,10b-hexahydrobenzo[c][1,6]naphthyridine hydrochloride] | 209 nM | 7.64 mol/l | – |
| CCOc1cc2c(cc1OCC)[C@@H]1CN(C)CC[C@@H]1N=C2c1cccc(-c2nnn(CC)n2)c1 (single isomer, unassigned) [Compound 11, (-)-cis-8,9-Diethoxy-2-methyl-6-[3-(2H-2-ethyltetrazol-5-yl)-phenyl]-1,2,3,4,4a,10b-hexahydrobenzo[c][1,6]naphthyridine hydrochloride] | – | 7.40 mol/l | 5.66 mol/l |
| COc1ccc(Cn2nnc(-c3ccc(C4=N[C@H]5CCN(C)C[C@H]5c5cc(OC)c(OC)cc54)cc3)n2)cc1 (single isomer, unassigned) [Compound 7, (-)-cis-8,9-Dimethoxy-2-methyl-6-[[4-[2H-2-(4-methoxybenzyl)tetrazol-5-yl]phenyl]]-1,2,3,4,4a,10b-hexahydrobenzo[c][1,6]naphthyridine hydrochloride] | 148 nM | 6.74 mol/l | – |
| CCCn1nnc(-c2ccc(C3=N[C@H]4CCN(C)C[C@H]4c4cc(OCC)c(OC)cc43)cc2)n1 (single isomer, unassigned) [Compound 16, (-)-cis-9-Ethoxy-8-methoxy-2-6-[4-(2H-2-propyltetrazol-5-yl)-phenyl]-1,2,3,4,4a,10b-hexahydrobenzo[c][1.6]naphthyridine hydrochloride] | 219 nM | 7.94 mol/l | – |
| CCCCCCn1nnc(-c2ccc(C3=N[C@H]4CCN(C)C[C@H]4c4cc(OCC)c(OC)cc43)cc2)n1 (single isomer, unassigned) [Compound 15, (-)-cis-9-Ethoxy-8-methoxy-2-methyl-6-[4-(2H-2-hexyltetrazol-5-yl)-phenyl]-1,2,3,4,4a,10-hexahydrobenzo[c][1.6]naphthyridine hydrochloride] | 631 nM | 8.24 mol/l | – |
| COc1cc2c(cc1OC)[C@@H]1CN(C)CC[C@@H]1N=C2c1ccc(-c2nn[nH]n2)cc1 (single isomer, unassigned) [Compound 1, (-)-cis-8,9-Dimethoxy-2-methyl-6-[4-(1H- and 2H-tetrazol-5-yl)phenyl]-1,2,3,4,4a,10b-hexahydrobenzo[c][1,6]naphthyridine] | 166 nM | 6.42 mol/l | – |
| CCOc1cc2c(cc1OC)C(c1ccc(-c3nn[nH]n3)cc1)=N[C@H]1CCN(C)C[C@@H]21 (single isomer, unassigned) [Compound 18, (-)-cis-9-Ethoxy-8-methoxy-2-methyl-6-[4-(1H- and 2H-2-tetrazol-5-yl)-phenyl]-1,2,3,4,4a,10b-hexahydrobenzo[c][1.6]naphthyridine] | 145 nM | 7.81 mol/l | – |
| CCn1nnc(-c2ccc(C3=N[C@H]4CCN(C)C[C@H]4c4cc(OC)c(OC)cc43)cc2)n1 (single isomer, unassigned) [Compound 2, (-)-cis-8,9-Dimethoxy-2-methyl-6-[4-(2H-2-ethyltetrazol-5-yl)phenyl]-1,2,3,4,4a,10b-hexahydrobenzo[c][1,6]naphthyridine hydrochloride] | 457 nM | 6.13 mol/l | – |
| CCOc1cc2c(cc1OC)C(c1ccc(-c3nnn(CC)n3)cc1)=N[C@H]1CCN(C)C[C@@H]21 (single isomer, unassigned) [Compound 9, (-)-(cis)-9-Ethoxy-8-methoxy-2-methyl-6-[4-(2H-2-ethyltetrazol-5-yl)phenyl]-1,2,3,4,4a,10b-hexahydrobenzo[c][1.6]naphthyridine] | 148 nM | 7.96 mol/l | – |
| CCOc1cc2c(cc1OCC)[C@@H]1CN(C)CC[C@@H]1N=C2c1ccc(-c2nnn(CC3CCCCC3)n2)cc1 (single isomer, unassigned) [Compound 8, (-)-cis-8,9-Diethoxy-2-methyl-6-[4-(2H-2-cyclohexylmethyltetrazol-5-yl)phenyl]-1,2,3,4,4a,10b-hexahydrobenzo[c][1,6]naphthyridine hydrochloride] | 309 nM | 7.64 mol/l | – |
